Test results: ChEMBL document CHEMBL4507265 (2021)

Key:
[1] = target: Angiopoietin-1 receptor (Homo sapiens) (UniProt Q02763); settings: Compound concentration 1000.0 nM
[2] = target: Cyclin-dependent kinase 17 (Homo sapiens) (UniProt Q00537); settings: Compound concentration 1000.0 nM
[3] = target: Tyrosine-protein kinase receptor TYRO3 (Homo sapiens) (UniProt Q06418); settings: Compound concentration 1000.0 nM
[4] = target: 1-phosphatidylinositol 3-phosphate 5-kinase (Homo sapiens) (UniProt Q9Y2I7); settings: Compound concentration 1000.0 nM
[5] = target: STE20-like serine/threonine-protein kinase (Homo sapiens) (UniProt Q9H2G2); settings: Compound concentration 1000.0 nM
[6] = target: MAP kinase-activated protein kinase 2 (Homo sapiens) (UniProt P49137); settings: Compound concentration 1000.0 nM
[7] = target: cAMP-dependent protein kinase catalytic subunit beta (Homo sapiens) (UniProt P22694); settings: Compound concentration 1000.0 nM
[8] = target: Receptor tyrosine-protein kinase erbB-4 (Homo sapiens) (UniProt Q15303); settings: Compound concentration 1000.0 nM
[9] = target: Serine/threonine-protein kinase Nek3 (Homo sapiens) (UniProt P51956); settings: Compound concentration 1000.0 nM
[10] = target: Non-receptor tyrosine-protein kinase TYK2 (Homo sapiens) (UniProt P29597); settings: Compound concentration 1000.0 nM
[11] = target: Serine/threonine-protein kinase D2 (Homo sapiens) (UniProt Q9BZL6); settings: Compound concentration 1000.0 nM
[12] = target: Serine/threonine-protein kinase RIO1 (Homo sapiens) (UniProt Q9BRS2); settings: Compound concentration 1000.0 nM
[13] = target: Mitogen-activated protein kinase kinase kinase 6 (Homo sapiens) (UniProt O95382); settings: Compound concentration 1000.0 nM
[14] = tested on: Proto-oncogene tyrosine-protein kinase receptor Ret (Homo sapiens), P07949 [M918T]; settings: Compound concentration 1000.0 nM
[15] = target: Serine/threonine-protein kinase TAO2 (Homo sapiens) (UniProt Q9UL54); settings: Compound concentration 1000.0 nM
[16] = target: Ephrin type-B receptor 6 (Homo sapiens) (UniProt O15197); settings: Compound concentration 1000.0 nM
[17] = target: Serine/threonine-protein kinase Nek11 (Homo sapiens) (UniProt Q8NG66); settings: Compound concentration 1000.0 nM
[18] = target: Activin receptor type-1 (Homo sapiens) (UniProt Q04771); settings: Compound concentration 1000.0 nM
[19] = target: Discoidin domain-containing receptor 2 (Homo sapiens) (UniProt Q16832); settings: Compound concentration 1000.0 nM
[20] = target: Phosphorylase b kinase gamma catalytic chain, skeletal muscle/heart isoform (Homo sapiens) (UniProt Q16816); settings: Compound concentration 1000.0 nM
[21] = tested on: Epidermal growth factor receptor (Homo sapiens), P00533 [G719C]; settings: Compound concentration 1000.0 nM
[22] = target: Macrophage colony-stimulating factor 1 receptor (Homo sapiens) (UniProt P07333); settings: Compound concentration 1000.0 nM
[23] = target: 5-hydroxytryptamine receptor 2B (Homo sapiens) (UniProt P41595); settings: Compound concentration 10.0 uM
[24] = target: Macrophage colony-stimulating factor 1 receptor (Homo sapiens) (UniProt P07333); settings: Compound concentration 1000.0 nM; remark: listed apart in the source
[25] = target: MAP kinase-activated protein kinase 5 (Homo sapiens) (UniProt Q8IW41); settings: Compound concentration 1000.0 nM
[26] = target: Mitogen-activated protein kinase kinase kinase 5 (Homo sapiens) (UniProt Q99683); settings: Compound concentration 1000.0 nM
[27] = target: Ribosomal protein S6 kinase alpha-3 (Homo sapiens) (UniProt P51812); settings: Compound concentration 1000.0 nM
[28] = target: STE20/SPS1-related proline-alanine-rich protein kinase (Homo sapiens) (UniProt Q9UEW8); settings: Compound concentration 1000.0 nM
[29] = target: Serine/threonine-protein kinase MARK2 (Homo sapiens) (UniProt Q7KZI7); settings: Compound concentration 1000.0 nM
[30] = target: Serine/threonine-protein kinase Sgk2 (Homo sapiens) (UniProt Q9HBY8); settings: Compound concentration 1000.0 nM
[31] = target: T1, Muscarinic acetylcholine receptor M2 (Homo sapiens) (UniProt P08172); settings: Compound concentration 10.0 uM
T1 sequence (whole entry): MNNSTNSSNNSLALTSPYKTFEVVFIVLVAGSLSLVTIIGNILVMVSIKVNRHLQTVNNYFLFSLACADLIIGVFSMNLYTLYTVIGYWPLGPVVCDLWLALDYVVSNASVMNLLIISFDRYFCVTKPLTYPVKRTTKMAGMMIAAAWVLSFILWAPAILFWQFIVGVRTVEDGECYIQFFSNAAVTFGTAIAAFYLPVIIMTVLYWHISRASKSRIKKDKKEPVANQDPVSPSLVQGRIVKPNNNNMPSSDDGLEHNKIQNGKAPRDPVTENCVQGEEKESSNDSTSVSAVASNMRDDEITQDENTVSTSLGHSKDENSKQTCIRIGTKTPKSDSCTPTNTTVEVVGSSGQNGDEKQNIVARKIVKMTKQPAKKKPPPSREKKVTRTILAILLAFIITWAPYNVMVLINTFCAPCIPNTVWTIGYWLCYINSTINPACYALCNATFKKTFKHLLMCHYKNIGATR

[32] = target: T2, Alpha-2A adrenergic receptor (Homo sapiens) (UniProt P08913); settings: Compound concentration 10.0 uM
T2 sequence (whole entry): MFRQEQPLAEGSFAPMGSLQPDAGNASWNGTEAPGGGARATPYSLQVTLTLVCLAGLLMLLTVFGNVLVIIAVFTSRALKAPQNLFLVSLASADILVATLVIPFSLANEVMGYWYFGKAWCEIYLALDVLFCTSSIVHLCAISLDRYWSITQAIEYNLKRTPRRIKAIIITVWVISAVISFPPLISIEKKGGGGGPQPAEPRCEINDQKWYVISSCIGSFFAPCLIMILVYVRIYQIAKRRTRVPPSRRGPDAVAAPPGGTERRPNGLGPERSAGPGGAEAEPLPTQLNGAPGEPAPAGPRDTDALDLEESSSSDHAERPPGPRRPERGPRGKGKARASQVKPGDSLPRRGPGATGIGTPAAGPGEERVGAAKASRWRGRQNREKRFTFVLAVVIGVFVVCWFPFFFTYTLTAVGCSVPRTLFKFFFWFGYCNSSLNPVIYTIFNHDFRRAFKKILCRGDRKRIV

Macrophage colony-stimulating factor 1 receptor (Homo sapiens), sequence (P07333 whole entry): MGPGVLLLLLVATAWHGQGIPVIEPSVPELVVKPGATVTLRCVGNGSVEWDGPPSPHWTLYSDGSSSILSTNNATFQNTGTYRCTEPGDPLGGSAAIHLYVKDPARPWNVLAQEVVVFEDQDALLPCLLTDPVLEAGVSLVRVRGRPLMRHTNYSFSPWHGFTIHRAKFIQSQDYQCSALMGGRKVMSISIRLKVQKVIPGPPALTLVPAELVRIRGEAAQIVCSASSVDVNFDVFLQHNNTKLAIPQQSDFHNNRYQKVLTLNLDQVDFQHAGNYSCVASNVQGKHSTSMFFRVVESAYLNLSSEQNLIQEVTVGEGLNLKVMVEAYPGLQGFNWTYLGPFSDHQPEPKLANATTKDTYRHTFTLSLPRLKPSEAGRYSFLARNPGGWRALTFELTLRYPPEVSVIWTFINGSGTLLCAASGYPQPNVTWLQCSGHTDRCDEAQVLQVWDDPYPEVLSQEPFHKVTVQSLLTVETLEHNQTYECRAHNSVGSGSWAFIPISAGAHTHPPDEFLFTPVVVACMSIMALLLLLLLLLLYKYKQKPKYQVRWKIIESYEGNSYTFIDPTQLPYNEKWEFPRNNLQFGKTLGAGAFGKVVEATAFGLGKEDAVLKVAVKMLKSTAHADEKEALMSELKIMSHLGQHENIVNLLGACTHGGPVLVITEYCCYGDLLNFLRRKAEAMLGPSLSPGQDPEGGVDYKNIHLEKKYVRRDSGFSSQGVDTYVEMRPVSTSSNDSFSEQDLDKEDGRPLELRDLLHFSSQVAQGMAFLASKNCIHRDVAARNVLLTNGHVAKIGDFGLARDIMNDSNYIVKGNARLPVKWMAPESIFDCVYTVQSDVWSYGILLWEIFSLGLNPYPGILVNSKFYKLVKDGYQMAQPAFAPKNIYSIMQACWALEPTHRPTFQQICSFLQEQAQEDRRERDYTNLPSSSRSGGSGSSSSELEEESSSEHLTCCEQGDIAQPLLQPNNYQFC
Serine/threonine-protein kinase RIO1 (Homo sapiens), sequence (Q9BRS2 whole entry): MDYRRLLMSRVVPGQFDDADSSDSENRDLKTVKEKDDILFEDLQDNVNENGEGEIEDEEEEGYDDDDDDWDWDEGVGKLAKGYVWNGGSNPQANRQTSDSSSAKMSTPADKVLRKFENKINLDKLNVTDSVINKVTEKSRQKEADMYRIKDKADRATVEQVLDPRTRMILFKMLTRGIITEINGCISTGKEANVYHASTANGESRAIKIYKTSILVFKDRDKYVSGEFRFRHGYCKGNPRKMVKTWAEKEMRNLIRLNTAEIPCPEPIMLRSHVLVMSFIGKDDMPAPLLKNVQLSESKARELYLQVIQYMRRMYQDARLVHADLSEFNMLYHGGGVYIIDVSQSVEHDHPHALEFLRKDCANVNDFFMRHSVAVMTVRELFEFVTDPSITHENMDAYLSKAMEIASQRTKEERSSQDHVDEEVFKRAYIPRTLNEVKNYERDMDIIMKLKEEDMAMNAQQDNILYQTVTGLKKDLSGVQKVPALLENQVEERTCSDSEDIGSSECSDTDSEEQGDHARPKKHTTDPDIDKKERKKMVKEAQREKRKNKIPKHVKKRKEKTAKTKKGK
Tyrosine-protein kinase receptor TYRO3 (Homo sapiens), sequence (Q06418 whole entry): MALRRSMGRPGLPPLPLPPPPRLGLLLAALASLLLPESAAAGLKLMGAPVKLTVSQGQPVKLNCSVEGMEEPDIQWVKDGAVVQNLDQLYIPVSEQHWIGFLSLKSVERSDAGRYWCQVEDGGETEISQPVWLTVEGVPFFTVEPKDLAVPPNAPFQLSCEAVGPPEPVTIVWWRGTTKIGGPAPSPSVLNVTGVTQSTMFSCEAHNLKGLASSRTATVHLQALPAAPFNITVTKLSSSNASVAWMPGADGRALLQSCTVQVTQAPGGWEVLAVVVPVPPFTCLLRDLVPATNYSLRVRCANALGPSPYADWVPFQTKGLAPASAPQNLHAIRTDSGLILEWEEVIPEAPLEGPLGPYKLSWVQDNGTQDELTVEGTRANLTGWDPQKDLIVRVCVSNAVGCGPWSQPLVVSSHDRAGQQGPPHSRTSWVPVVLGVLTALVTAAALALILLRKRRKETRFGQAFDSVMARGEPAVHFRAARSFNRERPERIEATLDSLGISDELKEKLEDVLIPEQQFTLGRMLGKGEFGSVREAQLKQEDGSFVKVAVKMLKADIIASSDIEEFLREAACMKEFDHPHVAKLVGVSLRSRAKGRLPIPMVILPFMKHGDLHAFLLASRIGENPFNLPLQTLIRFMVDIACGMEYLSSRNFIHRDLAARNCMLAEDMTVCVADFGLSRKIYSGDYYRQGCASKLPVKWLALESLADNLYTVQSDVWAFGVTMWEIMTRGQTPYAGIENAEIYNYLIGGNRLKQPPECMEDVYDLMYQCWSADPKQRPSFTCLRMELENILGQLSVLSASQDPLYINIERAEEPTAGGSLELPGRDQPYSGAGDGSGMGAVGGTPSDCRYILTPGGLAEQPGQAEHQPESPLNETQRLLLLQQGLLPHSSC
MAP kinase-activated protein kinase 5 (Homo sapiens), sequence (Q8IW41 whole entry): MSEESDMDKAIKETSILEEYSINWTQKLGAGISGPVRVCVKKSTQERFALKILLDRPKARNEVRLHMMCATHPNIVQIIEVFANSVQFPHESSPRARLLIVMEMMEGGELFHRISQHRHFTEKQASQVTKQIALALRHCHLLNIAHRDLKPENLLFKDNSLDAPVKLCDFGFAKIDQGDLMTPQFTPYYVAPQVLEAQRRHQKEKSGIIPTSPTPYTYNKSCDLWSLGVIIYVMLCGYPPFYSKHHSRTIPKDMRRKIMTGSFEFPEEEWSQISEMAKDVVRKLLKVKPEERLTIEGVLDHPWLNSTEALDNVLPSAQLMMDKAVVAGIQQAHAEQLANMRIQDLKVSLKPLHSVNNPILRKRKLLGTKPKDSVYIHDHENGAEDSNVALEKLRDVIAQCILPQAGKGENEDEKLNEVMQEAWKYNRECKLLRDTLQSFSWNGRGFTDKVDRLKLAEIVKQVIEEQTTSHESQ
1-phosphatidylinositol 3-phosphate 5-kinase (Homo sapiens), sequence (Q9Y2I7 whole entry): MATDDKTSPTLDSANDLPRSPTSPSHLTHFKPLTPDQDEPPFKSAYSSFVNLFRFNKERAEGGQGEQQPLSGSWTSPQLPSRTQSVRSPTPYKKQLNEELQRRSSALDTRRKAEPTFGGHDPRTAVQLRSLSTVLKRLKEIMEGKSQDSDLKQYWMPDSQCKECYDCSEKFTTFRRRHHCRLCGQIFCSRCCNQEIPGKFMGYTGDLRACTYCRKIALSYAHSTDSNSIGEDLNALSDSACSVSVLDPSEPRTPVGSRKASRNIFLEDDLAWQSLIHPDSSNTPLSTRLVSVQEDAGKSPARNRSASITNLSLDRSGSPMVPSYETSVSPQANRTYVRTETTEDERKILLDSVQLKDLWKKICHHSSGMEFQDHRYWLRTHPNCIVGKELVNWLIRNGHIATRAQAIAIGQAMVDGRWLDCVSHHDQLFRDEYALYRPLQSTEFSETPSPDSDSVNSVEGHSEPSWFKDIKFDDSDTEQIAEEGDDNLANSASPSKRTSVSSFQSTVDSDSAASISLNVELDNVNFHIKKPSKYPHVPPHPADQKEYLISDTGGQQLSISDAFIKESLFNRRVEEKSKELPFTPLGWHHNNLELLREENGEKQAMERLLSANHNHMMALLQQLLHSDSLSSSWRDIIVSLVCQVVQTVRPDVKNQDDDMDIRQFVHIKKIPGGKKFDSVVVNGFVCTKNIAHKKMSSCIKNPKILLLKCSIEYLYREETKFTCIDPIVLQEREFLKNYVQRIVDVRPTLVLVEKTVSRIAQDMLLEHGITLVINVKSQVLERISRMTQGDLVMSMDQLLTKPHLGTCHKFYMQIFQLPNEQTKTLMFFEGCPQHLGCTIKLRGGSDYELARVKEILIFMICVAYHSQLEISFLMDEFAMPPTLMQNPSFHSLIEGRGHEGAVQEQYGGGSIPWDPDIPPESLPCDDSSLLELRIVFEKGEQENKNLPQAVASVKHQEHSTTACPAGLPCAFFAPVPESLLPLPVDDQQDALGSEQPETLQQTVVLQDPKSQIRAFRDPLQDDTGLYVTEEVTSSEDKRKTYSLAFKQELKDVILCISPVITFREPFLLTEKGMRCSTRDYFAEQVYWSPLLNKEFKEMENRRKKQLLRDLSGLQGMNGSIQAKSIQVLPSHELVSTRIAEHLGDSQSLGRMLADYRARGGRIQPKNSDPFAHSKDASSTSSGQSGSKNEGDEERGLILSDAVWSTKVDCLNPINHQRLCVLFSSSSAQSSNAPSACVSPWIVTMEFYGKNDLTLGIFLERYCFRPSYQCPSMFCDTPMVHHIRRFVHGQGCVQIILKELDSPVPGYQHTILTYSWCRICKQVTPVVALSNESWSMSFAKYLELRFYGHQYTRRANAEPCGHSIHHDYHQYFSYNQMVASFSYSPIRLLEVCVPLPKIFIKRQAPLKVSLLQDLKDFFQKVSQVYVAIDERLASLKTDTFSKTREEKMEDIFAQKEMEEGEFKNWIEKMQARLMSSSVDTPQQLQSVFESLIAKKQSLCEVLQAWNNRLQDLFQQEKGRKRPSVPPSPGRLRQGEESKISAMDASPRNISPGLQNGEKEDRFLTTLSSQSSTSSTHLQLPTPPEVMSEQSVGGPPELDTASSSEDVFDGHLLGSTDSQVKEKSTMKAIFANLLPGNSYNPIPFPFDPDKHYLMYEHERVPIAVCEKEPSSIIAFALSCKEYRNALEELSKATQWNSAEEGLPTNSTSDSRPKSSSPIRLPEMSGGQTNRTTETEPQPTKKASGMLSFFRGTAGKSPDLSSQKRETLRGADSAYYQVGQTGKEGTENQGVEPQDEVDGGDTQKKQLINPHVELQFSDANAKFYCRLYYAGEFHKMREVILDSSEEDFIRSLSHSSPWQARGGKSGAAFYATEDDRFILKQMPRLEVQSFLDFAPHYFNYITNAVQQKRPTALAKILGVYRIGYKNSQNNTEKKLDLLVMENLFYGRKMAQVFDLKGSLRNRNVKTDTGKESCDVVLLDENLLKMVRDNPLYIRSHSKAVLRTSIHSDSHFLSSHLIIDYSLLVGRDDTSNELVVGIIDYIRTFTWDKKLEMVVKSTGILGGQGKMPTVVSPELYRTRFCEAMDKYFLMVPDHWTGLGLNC

NS(=O)(=O)c1cc(NC(=O)Cc2ccccc2)ccc1Oc1cccc(Cl)c1 [BAY-1797]
inactive: residual activity [1] 90% | residual activity [2] 88% | residual activity [3] 76% | residual activity [4] 95% | residual activity [5] 66% | residual activity [6] 100% | residual activity [7] 100% | residual activity [8] 56% | residual activity [9] 100% | residual activity [10] 67% | residual activity [11] 85% | residual activity [12] 93% | residual activity [13] 72% | residual activity [14] 83% | residual activity [15] 76% | residual activity [16] 92% | residual activity [17] 100% | residual activity [18] 84% | residual activity [19] 87% | residual activity [20] 87% | residual activity [21] 63% | residual activity [22] 87% | inhibition [23] 30.2% | residual activity [24] 51% | residual activity [25] 100% | residual activity [26] 100% | residual activity [27] 98% | residual activity [28] 86% | residual activity [29] 59% | residual activity [30] 85% | inhibition [31] -8.33% | inhibition [32] 6.31%

NS(=O)(=O)c1cc(NC(=O)C2(c3ccccc3Cl)CC2)ccc1Oc1cccc(Cl)c1 [BAY-207]
inactive: residual activity [1] 69% | residual activity [2] 88% | residual activity [3] 100% | residual activity [4] 100% | residual activity [5] 79% | residual activity [6] 90% | residual activity [7] 88% | residual activity [8] 75% | residual activity [9] 95% | residual activity [10] 80% | residual activity [11] 87% | residual activity [12] 84% | residual activity [13] 100% | residual activity [14] 71% | residual activity [15] 82% | residual activity [16] 81% | residual activity [17] 100% | residual activity [18] 100% | residual activity [19] 96% | residual activity [20] 89% | residual activity [21] 90% | residual activity [22] 85% | inhibition [23] 21.1% | residual activity [24] 100% | residual activity [25] 89% | residual activity [26] 88% | residual activity [27] 92% | residual activity [28] 100% | residual activity [29] 100% | residual activity [30] 100% | inhibition [31] 2.03% | inhibition [32] 40.8%
